Measured values taken from US20250277012A1 (Protagonist Therapeutics, Inc., priority 2021, published 2025).
Where two headings read alike, the source gives them in different places. Starred links: 1 amine or outer side, 2 acyl side, 3 side chain; linkers in the order of their positions; H or OH if unused. Positions of bridges follow the written chain, without caps; N, C: chain ends. Non-standard residues stand in square brackets, D forms with d. Residues, ends and D or L forms follow the SMILES beside them. Groups on a side chain read outwards from the residue. *: point of attachment. X1 = C[N+](C)(CCNC(=O)CCCCCCCCCCCCCCCCC(=O)O)CC(=O)*; Ala(quinolin-3-yl) = N[C@@H](Cc1cnc2ccccc2c1)C(=O)O; Nva(5-morpholino) = N[C@@H](CCCN1CCOCC1)C(=O)O; X5 = CCCCCCCCCCCCCCCC(=O)NCC[N+](C)(C)CC(=O)*; Bip = N[C@@H](Cc1ccc(-c2ccccc2)cc1)C(=O)O; C18 diacid = O=C(O)CCCCCCCCCCCCCCCCC(=O)*; Dip = N[C@H](C(=O)O)C(c1ccccc1)c1ccccc1; X6 = O=C([C@H](CC1N=NN=N1)N[*:1])[*:2]; NHCH2CHPh2 = c1ccc(C(CN*)c2ccccc2)cc1; Palmitoyl = CCCCCCCCCCCCCCCC(=O)*; 3Pal = N[C@@H](Cc1cccnc1)C(=O)O; β3hF = N[C@H](CC(=O)O)Cc1ccccc1; Aad = N[C@@H](CCCC(=O)O)C(=O)O; NMeK = CN[C@@H](CCCCN)C(=O)O; Pen = CC(C)(S)[C@H](N)C(=O)O; Nicotinoyl = O=C(c1cccnc1)*; Isovaleryl = CC(C)CC(=O)*; Dap = NC[C@H](N)C(=O)O; AEEA = NCCOCCOCC(=O)O; Ahx = NCCCCCC(=O)O

What was measured:
ferroportin [1] = target: T1, ferroportin (Homo sapiens, UniProt Q9NP59); test: FPN activity assay: ferroportin-GFP internalization/degradation in HEK293 cells; type: cell-based; design: expressed in transfected cells; settings: ferroportin-GFP internalization/degradation, Table 6E, read-out: FPN IC50
T1 sequence (Q9NP59 1-571): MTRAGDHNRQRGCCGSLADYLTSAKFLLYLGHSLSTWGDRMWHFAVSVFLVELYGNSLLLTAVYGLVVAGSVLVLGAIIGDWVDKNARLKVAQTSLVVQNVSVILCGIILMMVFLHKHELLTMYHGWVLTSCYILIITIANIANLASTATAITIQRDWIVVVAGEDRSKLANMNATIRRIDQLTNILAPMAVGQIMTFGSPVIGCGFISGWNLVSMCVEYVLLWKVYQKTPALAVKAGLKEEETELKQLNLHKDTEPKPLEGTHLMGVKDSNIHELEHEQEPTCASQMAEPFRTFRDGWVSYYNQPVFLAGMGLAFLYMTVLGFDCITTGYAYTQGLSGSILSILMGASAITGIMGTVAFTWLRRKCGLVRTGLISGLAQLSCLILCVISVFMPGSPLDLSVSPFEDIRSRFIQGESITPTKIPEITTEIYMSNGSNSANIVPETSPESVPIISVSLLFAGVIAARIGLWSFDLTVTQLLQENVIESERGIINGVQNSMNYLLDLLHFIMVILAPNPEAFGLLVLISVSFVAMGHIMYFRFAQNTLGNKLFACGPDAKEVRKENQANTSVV
Protocol: Following internalization, the ferroporin protein is degraded.
A retro inverse peptide is a peptide with a reversed sequence in all D amino acids. An example is that Hy-Glu-Thr-His-NH2 becomes Hy-DHis-DThr-DGlu-NH2. The EC50 of these reference compounds for ferroportin internalization/degradation was determined according to the FPN activity assay described above. These peptides served as control standards.

ferroportin [2] = target: T1, ferroportin; test: T47D cell-based ferroportin internalization assay in presence of mouse serum albumin (MSA); design: a human breast carcinoma adherent cell line which endogenously expresses ferroportin; host or cells: T47D; settings: Table 6E
In short: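 Peptide potency for inducing ferroportin internalization was measured in T47D cells in the presence of serum albumin. Cells grown in RPMI with fetal bovine serum were seeded in 96-well plates at 80-100 k cells per well in 100 ul and rested overnight. Dilution series of test peptides were preincubated 30 min at room temperature, then added to the cells after the medium was aspirated.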

[3] = T47D internalization assay in presence of mouse serum albumin (MSA)
[4] = T47D internalization assay with MSA

Row | Structure (SMILES) | DC50 (ferroportin [1]; HEK293 cells) [µM] | IC50 (ferroportin [2]; [3]) [µM] | DC50 (ferroportin [1]; at least 18 hours incubation) [µM] | IC50 (ferroportin [2]; [4]) [µM]
1 | CCCCCCCCCCCCCCCC(=O)NCCCCCC(=O)NCCCC[C@@H](C(=O)NCC(c1ccccc1)c1ccccc1)N(C)C(=O)[C@@H]1CSSC[C@H](NC(=O)[C@@H]2CCCN2C(=O)[C@@H](NC(=O)[C@H](Cc2cnc[nH]2)NC(=O)[C@@H](NC(=O)[C@H](CCC(=O)O)NC(=O)CC(C)C)[C@@H](C)O)C(c2ccccc2)c2ccccc2)C(=O)N1 [compound 163] (Isovaleryl-ETH[Dip]PCC[NMeK]([Ahx-Palmitoyl])-NHCH2CHPh2; disulfide 6-7) |  |  | 0.01 to 0.1 | 0.001 to 0.01
2 | CC(C)CC(=O)N[C@@H](CCC(=O)O)C(=O)N[C@H](C(=O)N[C@@H](Cc1cnc2ccccc2c1)C(=O)N[C@H](C(=O)N1CCC[C@H]1C(=O)N[C@H]1CSSC[C@@H](C(=O)N(C)[C@@H](CCCCNC(=O)COCCOCCNC(=O)COCCOCCNC(=O)[C@H](CN)NC(=O)CCCCCCCCCCCCCCCCC(=O)O)C(=O)N[C@H](CC(=O)N[C@H](CCCCN)C(N)=O)Cc2ccccc2)NC1=O)C(c1ccccc1)c1ccccc1)[C@@H](C)O [compound 296] (Isovaleryl-ET[Ala(quinolin-3-yl)][Dip]PCC[NMeK]([AEEA-AEEA-Dap-C18 diacid])[β3hF][dK]-NH2; disulfide 6-7) | > 0.5 | > 0.5 |  | 
3 | CC(C)CC(=O)N[C@@H](CCC(=O)O)C(=O)N[C@H](C(=O)N[C@@H](Cc1cnc[nH]1)C(=O)N[C@H](C(=O)N1CCC[C@H]1C(=O)N[C@H]1CSSC[C@@H](C(=O)N(C)[C@@H](CCCCNC(=O)COCCOCCNC(=O)COCCOCCNC(=O)[C@H](CN)NC(=O)CCCCCCCCCCCCCCCCC(=O)O)C(=O)N[C@H](CC(=O)N(C)[C@@H](CCCCN)C(N)=O)Cc2ccccc2)NC1=O)C(c1ccccc1)c1ccccc1)[C@@H](C)O [compound 292] (Isovaleryl-ETH[Dip]PCC[NMeK]([AEEA-AEEA-Dap-C18 diacid])[β3hF][NMeK]-NH2; disulfide 6-7) | 0.01 to 0.1 | 0.001 to 0.01 |  | 
4 | CC(C)CC(=O)N[C@@H](CCC(=O)O)C(=O)N[C@H](C(=O)N[C@@H](Cc1c[nH]cn1)C(=O)N[C@H](C(=O)N1CCC[C@H]1C(=O)N[C@H]1CSSC[C@@H](C(=O)N(C)[C@@H](CCCCNC(=O)COCCOCCNC(=O)COCCOCCNC(=O)[C@H](CN)NC(=O)CCCCCCCCCCCCCCCCC(=O)O)C(=O)N[C@H](CC(=O)N[C@@H](CCCN2CCOCC2)C(N)=O)Cc2ccccc2)NC1=O)C(c1ccccc1)c1ccccc1)[C@@H](C)O [compound 265] (Isovaleryl-ETH[Dip]PCC[NMeK]([AEEA-AEEA-Dap-C18 diacid])[β3hF][Nva(5-morpholino)]-NH2; disulfide 6-7) | 0.01 to 0.1 | 0.01 to 0.1 |  | 

The next lines start with the values.

Row | DC50 (ferroportin [1]; HEK293 cells) [µM] | IC50 (ferroportin [2]; [3]) [µM] | DC50 (ferroportin [1]; at least 18 hours incubation) [µM] | IC50 (ferroportin [2]; [4]) [µM] | Structure (SMILES)
5 | 0.01 to 0.1 | 0.01 to 0.1 |  |  | CC(C)CC(=O)N[C@@H](CC1N=NN=N1)C(=O)N[C@H](C(=O)N[C@@H](Cc1cnc[nH]1)C(=O)N[C@H](C(=O)N1CCC[C@H]1C(=O)N[C@H]1CSSC[C@@H](C(=O)N(C)[C@@H](CCCCNC(=O)COCCOCCNC(=O)COCCOCCNC(=O)[C@H](CN)NC(=O)CCCCCCCCCCCCCCCCC(=O)O)C(=O)N[C@H](CC(=O)N[C@H](CCCCN)C(N)=O)Cc2ccccc2)NC1=O)C(c1ccccc1)c1ccccc1)[C@@H](C)O [compound 288] (Isovaleryl-[X6]TH[Dip]PCC[NMeK]([AEEA-AEEA-Dap-C18 diacid])[β3hF][dK]-NH2; disulfide 6-7)
6 | 0.01 to 0.1 | 0.01 to 0.1 |  |  | CC(C)CC(=O)N[C@@H](CCC(=O)O)C(=O)N[C@H](C(=O)N[C@@H](Cc1c[nH]cn1)C(=O)N[C@H](C(=O)N1CCC[C@H]1C(=O)N[C@H]1CSSC(C)(C)[C@@H](C(=O)N[C@@H](CCCCNC(=O)COCCOCCNC(=O)COCCOCCNC(=O)[C@H](CN)NC(=O)CCCCCCCCCCCCCCCCC(=O)O)C(=O)N[C@H](CC(=O)N[C@H](CCCCN)C(N)=O)Cc2ccccc2)NC1=O)C(c1ccccc1)c1ccccc1)[C@@H](C)O [compound 272] (Isovaleryl-ETH[Dip]PC[Pen]K([AEEA-AEEA-Dap-C18 diacid])[β3hF][dK]-NH2; disulfide 6-7)
7 | 0.01 to 0.1 | 0.01 to 0.1 |  |  | CC(C)CC(=O)N[C@@H](CCCC(=O)O)C(=O)N[C@H](C(=O)N[C@@H](Cc1cccnc1)C(=O)N[C@H](C(=O)N1CCC[C@H]1C(=O)N[C@H]1CSSC[C@@H](C(=O)N(C)[C@@H](CCCCNC(=O)COCCOCCNC(=O)COCCOCCNC(=O)[C@H](CN)NC(=O)CCCCCCCCCCCCCCCCC(=O)O)C(=O)N[C@H](C(=O)N[C@H](CCCCN)C(N)=O)C(c2ccccc2)c2ccccc2)NC1=O)C(c1ccccc1)c1ccccc1)[C@@H](C)O [compound 242] (Isovaleryl-[Aad]T[3Pal][Dip]PCC[NMeK]([AEEA-AEEA-Dap-C18 diacid])[Dip][dK]-NH2; disulfide 6-7)
8 |  |  | 0.01 to 0.1 | 0.001 to 0.01 | CCCCCCCCCCCCCCCC(=O)NCC[N+](C)(C)CC(=O)NCCCC[C@@H](C(=O)N[C@H](C(=O)N[C@H](CCCCN)C(N)=O)C(c1ccccc1)c1ccccc1)N(C)C(=O)[C@@H]1CSSC[C@H](NC(=O)[C@@H]2CCCN2C(=O)[C@@H](NC(=O)[C@H](Cc2cnc[nH]2)NC(=O)[C@@H](NC(=O)[C@H](CCC(=O)O)NC(=O)CC(C)C)[C@@H](C)O)C(c2ccccc2)c2ccccc2)C(=O)N1 [compound 194] (Isovaleryl-ETH[Dip]PCC[NMeK](X5)[Dip][dK]-NH2; disulfide 6-7)
9 |  |  | 0.01 to 0.1 | 0.01 to 0.1 | CC(C)CC(=O)N[C@@H](CCC(=O)O)C(=O)N[C@H](C(=O)N[C@@H](Cc1c[nH]cn1)C(=O)N[C@H](C(=O)N1CCC[C@H]1C(=O)N[C@H]1CSSC[C@@H](C(=O)N(C)[C@@H](CCCCNC(=O)CCCCCNC(=O)C[N+](C)(C)CCNC(=O)CCCCCCCCCCCCCCCCC(=O)O)C(=O)N[C@@H](Cc2ccc(-c3ccccc3)cc2)C(=O)N[C@H](CCCCN)C(N)=O)NC1=O)C(c1ccccc1)c1ccccc1)[C@@H](C)O [compound 183] (Isovaleryl-ETH[Dip]PCC[NMeK]([Ahx-X1])[Bip][dK]-NH2; disulfide 6-7)
10 | 0.01 to 0.1 | 0.01 to 0.1 |  |  | C[C@@H](O)[C@H](NC(=O)[C@H](CCC(=O)O)NC(=O)c1cccnc1)C(=O)N[C@@H](Cc1c[nH]cn1)C(=O)N[C@H](C(=O)N1CCC[C@H]1C(=O)N[C@H]1CSSC[C@@H](C(=O)N(C)[C@@H](CCCCNC(=O)COCCOCCNC(=O)COCCOCCNC(=O)[C@H](CN)NC(=O)CCCCCCCCCCCCCCCCC(=O)O)C(=O)N[C@H](CC(=O)N[C@H](CCCCN)C(N)=O)Cc2ccccc2)NC1=O)C(c1ccccc1)c1ccccc1 [compound 299] (Nicotinoyl-ETH[Dip]PCC[NMeK]([AEEA-AEEA-Dap-C18 diacid])[β3hF][dK]-NH2; disulfide 6-7)
11 | 0.001 to 0.01 | 0.01 to 0.1 |  |  | COC(=O)CC[C@H](NC(=O)CC(C)C)C(=O)N[C@H](C(=O)N[C@@H](Cc1c[nH]cn1)C(=O)N[C@H](C(=O)N1CCC[C@H]1C(=O)N[C@H]1CSSC[C@@H](C(=O)N(C)[C@@H](CCCCNC(=O)COCCOCCNC(=O)COCCOCCNC(=O)[C@H](CN)NC(=O)CCCCCCCCCCCCCCCCC(=O)O)C(=O)N[C@H](CC(N)=O)Cc2ccccc2)NC1=O)C(c1ccccc1)c1ccccc1)[C@@H](C)O [compound 256] (Isovaleryl-E(OMe)TH[Dip]PCC[NMeK]([AEEA-AEEA-Dap-C18 diacid])[β3hF]-NH2; disulfide 6-7)
